Measured values published in patent publication US10570155B2, “Imidazooxazole derivative having antitumor effect, and pharmaceutical composition including same” (KOREA INSTITUTE OF SCIENCE AND TECHNOLOGY, priority 2016, dated 2020).
pIC50: −log10 of the molar value.

Columns and labels:
M14 = assay: NCI cancer cell line panel screening (SRB), melanoma cell line M14; assay type: cell-based; conditions: Homo sapiens, read-out: IC50 against melanoma cell line in vitro
Experimental: (§1) According to the standard protocol (http://dtp.nci.nih.gov/dtpstandard/dwindex/index.isp) of the US National Cancer Institute (NCI) (www.dtp.nci.nih.gov), screening of a cancer cell line panel was performed. Briefly, human cell lines were allowed to grow in an RPMI 1640 medium containing 5% FBS and 2 mM L-glutamine. For a general screening experiment, cells were inoculated in 96-well microtiter plates in 100 μl at a plating density ranging from 5000 cells/well to 40,000 cells/well depending on the doubling time of individual cell lines. After cell inoculation, the microtiter plates were incubated at 37° C., 5% CO2, 95% air, and 100% relative humidity for 24 hours prior to addition of test compounds. 24 hours later, two plates of each cell line were fixed in situ with trichloroacetic acid (TCA) to measure the cell population for each cell line at the time of test compound addition (Tz). Test compounds were solubilized in dimethyl sulfoxide at 400-fold the intended final maximum test concentration, and stored frozen prior to use. At the time of compound addition, an aliquot of frozen concentrate was thawed and diluted to twice the intended final maximum test concentration with a complete medium containing 50 μg/ml of gentamicin. Additional four concentration of 10-fold or ½ log serial dilutions were made to provide a total of five compound concentrations plus control. Aliquots of 100 μl of these different compound dilutions were added to appropriate microtiter wells already containing 100 μl of medium, resulting in the required final compound concentrations.
(§2) Following compound addition, the plates were incubated for additional 48 hours at 37° C., 5% CO2, 95% air, and 100% relative humidity. For adherent cells, the assay was terminated by the addition of cold TCA. Cells were fixed in situ by the gentle addition of 50 μl of cold 50% (w/v) TCA (final concentration, 10% TAC) and incubated at 4° C. for 60 minutes. The supernatant was discarded, and the plates were washed five times with tap water and air-dried. A sulforhodamine B (SRB) solution (100 μl) at 0.4% (w/v) in 1% acetic acid was added to each well, and plates were incubated at room temperature for 10 minutes. After staining, unbound dye was removed by washing five times with 1% acetic acid and the plates were air-dried. Bound stain was subsequently solubilized with 10 mM Trizma base, and the absorbance was read on an automated plate reader at a wavelength of 515 nm. For suspension cells, the methodology was the same except that the assay was terminated by fixing settled cells at the bottom of the wells by gently adding 50 μl of 80% TCA (final concentration, 16% TCA). Using the seven absorbance measurements [time zero (Tz), control growth (C), and test growth rate in the presence of compound at the five concentration levels (Ti)], the growth percentage was calculated at each of the compound concentration levels. Growth inhibition percentage was calculated as follows: [(Ti−Tz)/(C−Tz)]×100 for concentrations for which Ti>/=Tz [(Ti−Tz)/Tz]×100 for concentrations for which Ti<Tz.

UACC-62 = assay: NCI cancer cell line panel screening (SRB), melanoma cell line UACC-62; assay type: cell-based; conditions: Homo sapiens, read-out: IC50 against melanoma cell line in vitro
Experimental: as §1, §2

A375 = assay: NCI cancer cell line panel screening (SRB), melanoma cell line A375; assay type: cell-based; conditions: Homo sapiens, A-375, read-out: IC50 against melanoma cell line in vitro
Experimental: as §1, §2

MDA-MB-435 = assay: NCI cancer cell line panel screening (SRB), melanoma cell line MDA-MB-435; assay type: cell-based; conditions: Homo sapiens, read-out: IC50 against melanoma cell line in vitro
Experimental: as §1, §2

SK-MEL-5 = assay: NCI cancer cell line panel screening (SRB), melanoma cell line SK-MEL-5; assay type: cell-based, human; conditions: Homo sapiens, read-out: IC50 against melanoma cell line in vitro
Experimental: as §1, with “Briefly, human cell lines were allowed to grow in an RPMI 1640 medium containing 5% FBS and 2 mM L-glutamine.” left out
as §2, with “Bound stain was subsequently solubilized with 10 mM Trizma base, and the absorbance was read on an automated plate reader at a wavelength of 515 nm.” left out

## CCN1CCN(CCNc2nccc(-c3c(-c4cccc(O)c4)nc4occn34)n2)S1(=O)=O [2II, 2-Ethyl-5-(2-((4-(6-(3-hydroxylphenyl)imidazo[2,1-b]oxazol-5-yl)pyrimidin-2-yl)amino)ethyl)-1,2,5-thiadiazolidine 1,1-dioxide]
M14
  pIC50: 6.85
UACC-62
  pIC50: 7.15
A375
  pIC50: 6.72
MDA-MB-435
  pIC50: 6.43
SK-MEL-5
  pIC50: 5.20
